Measured values as given in patent publication US20180369211A1, “METHODS AND COMPOSITIONS FOR TREATING NEURODEGENERATIVE DISORDERS” (Lysosomal Therapeutics Inc., priority 2016, published 2018).

Molecular target: T1, acid ceramidase (Homo sapiens, UniProt Q13510)
T1 construct: host or cells: unnamed cells; lysate 'enriched with acid ceramidase'
T1 sequence (Q13510 22-395): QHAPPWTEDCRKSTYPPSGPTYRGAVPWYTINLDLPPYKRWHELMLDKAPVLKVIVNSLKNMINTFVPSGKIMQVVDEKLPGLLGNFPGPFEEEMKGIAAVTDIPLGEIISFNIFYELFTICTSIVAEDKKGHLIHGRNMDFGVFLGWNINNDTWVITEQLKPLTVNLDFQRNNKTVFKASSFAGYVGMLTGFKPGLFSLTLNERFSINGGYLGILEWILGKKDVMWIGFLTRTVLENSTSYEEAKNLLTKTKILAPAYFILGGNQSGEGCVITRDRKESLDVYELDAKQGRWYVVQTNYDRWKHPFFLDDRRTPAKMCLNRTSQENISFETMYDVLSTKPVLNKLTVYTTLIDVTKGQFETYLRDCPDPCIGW
Assay: acid ceramidase fluorescent intensity assay with fluorogenic substrate Rbm 14-12
Type: biochemical
Conditions: cell lysates enriched with acid ceramidase, 1 hour pre-incubation, pH 4.5, substrate Rbm 14-12 at 6.3 μM, room temperature, 1 or two hours; read-out: average IC50 value for the 1 and 2 hour time points
Method: Inhibition of acid ceramidase activity by compound 25 of Table 1 was evaluated in a fluorescent intensity assay using a fluorogenic substrate Rbm 14-12 […]. Compound 25 was incubated with cell lysates enriched with acid ceramidase for 1 hour in an assay buffer containing 50 mM NaOAc and 100 mM NaCl at pH 4.5. The reaction was initiated by the addition of the substrate at a final concentration of 6.3 μM and the mixture was incubated at room temperature for 1 or two hours. At the appropriate time, the reaction was quenched by the addition of methanol and treated with NaIO4 (fresh 2.5 mg/ml solution was made in 100 mM glycine/NaOH buffer, pH 10.6), followed by incubation for 1 hour at room temperature. Fluorescent intensity was measured using a plate reader at ex 355 nm and em 460 nm.

SMILES: O=C(NCCCCc1ccccc1)n1c(=O)oc2cc(-c3ccc(F)cc3)ccc21 [compound 25, 6-(4-fluorophenyl)-2-oxo-N-(4-phenylbutyl)-1,3-benzoxazole-3-carboxamide]
- IC50: 250 to 500 nM
